Results from US20090304632A1, “HETEROCYCLIC NF-kB INHIBITORS” (priority 2007, published 2009).
Like-named read-outs stand apart in the source and are kept apart here.

What was measured:
NF-κB = NF-κB inflammation assay (PRINCESS NINA Instant Assay, A549-NF-κB-SEAP reporter cells); format: cell-based; settings: for EC50: A549-NF-κB-SEAP reporter cells stimulated with 2 ng/ml TNF-α, read-out: Biological activity (EC50, NF-κB inflammation assay)
mouse splenocytes = test: Cytokine production of mouse splenocytes stimulated with CD3/CD28; format: cell-based; settings: 10 μM
human PBMCs = test: Cytokine production of human PBMCs; format: cell-based; settings: for EC50: Homo sapiens, PBMC, 48 h, 48 hours
[1] = system: bird flu virus H5N1 (strain MB1); format: in vivo, mouse; settings: H5N1 infected mice, daily 15 mg/kg i.p. for two days
[2] = system: Influenza A virus H5N1-strain; format: cell-based; settings: 5 μM, infected A549 cells
[3] = system: Fowl Plaque Virus, H7N7-strain; format: cell-based, Influenza A virus; settings: 5 μM, infected A549 cells
A549 cells = test: Determination of cell viability (MTT staining); format: cell-based
Protocol: Cell lines (e.g. A549) incubated with compounds of the invention were assessed on cell viability by means of MTT staining.

influenza strain H7N7 = format: in vivo, mouse
influenza strain H5N1 = format: in vivo, mouse
hematological cell lines = test: In-vitro antitumor activity in human tumor cell lines (monolayer assay, propidium iodide); format: cell-based
human lymphocyte = test: T-lymphocyte proliferation assay (stimulated PBMC, BrdU); format: cell-based
mouse T-cell = test: Mouse T-cell proliferation; format: cell-based
influenza virus = test: Antiviral combination with interferon-α

Which EC50 (NF-κB) does the source give for `COc1nc(OC)nc(N2CCC(c3nc(C(=O)Nc4nc5cc(C(=O)c6ccccc6)ccc5[nH]4)cs3)CC2)n1` [Compound 13, N-(5-benzoyl-1H-benzo[d]imidazol-2-yl)-2-(1-(4,6-dimethoxy-1,3,5-triazin-2-yl)piperidin-4-yl)thiazole-4-carboxamide] here?
The EC50 was less than 10 µM.

For `COC(=O)c1nc2nccc(N3CCC(c4nc(C(=O)Nc5nc6cc(C(=O)c7ccccc7)ccc6[nH]5)cs4)CC3)n2n1` [Compound 11, Methyl 7-(4-(4-(5-benzoyl-1H-benzo[d]imidazol-2-ylcarbamoyl)thiazol-2-yl)piperidin-1-yl)-[1,2,4]triazolo[1,5-a]pyrimidine-2-carboxylate], which EC50 (NF-κB) is on record?
Its EC50 is less than 10 µM.

For `COc1cc2c(N3CCC(c4nc(C(=O)Nc5nc6cc(C(=O)c7ccccc7)ccc6[nH]5)cs4)CC3)ncnc2cc1OCCCN1CCN(C)CC1` [Compound 6, N-(5-benzoyl-1H-benzo[d]imidazol-2-yl)-2-(1-(6-methoxy-7-(3-(4-methylpiperazin-1-yl)propoxy)quinazolin-4-yl)piperidin-4-yl)thiazole-4-carboxamide], which EC50 (NF-κB) is on record?
The EC50 was less than 10 µM.

How did the EC50 (NF-κB) turn out when `COc1cc(N2CCC(c3nc(C(=O)Nc4nc5ccc(C(=O)c6ccccc6)cc5[nH]4)cs3)CC2)nc(OC)n1` [Compound 1, N-(6-benzoyl-1H-benzo[d]imidazol-2-yl)-2-(1-(2,6-dimethoxypyrimidin-4-yl)piperidin-4-yl)thiazole-4-carboxamide] was run?
The EC50 was less than 10 µM.

How did the EC50 (NF-κB) turn out when `O=C(c1ccccc1)c1ccc2[nH]c(NC(=O)c3csc(C4CCN(c5ccncc5[N+](=O)[O-])CC4)n3)nc2c1` [Compound 15, N-(5-benzoyl-1H-benzo[d]imidazol-2-yl)-2-(1-(3-nitropyridin-4-yl)piperidin-4-yl)thiazole-4-carboxamide] was run?
Its EC50 is less than 10 µM.

Which EC50 (NF-κB) does the source give for `N#Cc1ccnc(N2CCC(c3nc(C(=O)Nc4nc5ccc(C(=O)c6ccccc6)cc5[nH]4)cs3)CC2)c1` [Compound 3, N-(6-benzoyl-1H-benzo[d]imidazol-2-yl)-2-(1-(4-cyanopyridin-2-yl)piperidin-4-yl)thiazole-4-carboxamide] here?
The EC50 was 30 to 100 µM.

For `O=C(c1ccccc1)c1ccc2nc(NC(=O)c3csc(C4CCN(c5cc(C(F)(F)F)ncn5)CC4)n3)[nH]c2c1` [Compound 5, N-(6-benzoyl-1H-benzo[d]imidazol-2-yl)-2-(1-(6-(trifluoromethyl)pyrimidin-4-yl)piperidin-4-yl)thiazole-4-carboxamide], which EC50 (NF-κB) is on record?
The EC50 was 10 to 30 µM.

For `COc1cc2ncnc(N3CCC(c4nc(C(=O)Nc5nc6cc(C(=O)c7ccccc7)ccc6[nH]5)cs4)CC3)c2cc1OC` [Compound 14, N-(5-benzoyl-1H-benzo[d]imidazol-2-yl)-2-(1-(6,7-dimethoxyquinazolin-4-yl)piperidin-4-yl)thiazole-4-carboxamide], which EC50 (NF-κB) is on record?
Its EC50 is less than 10 µM.

Which EC50 (NF-κB) does the source give for `O=C(c1ccccc1)c1ccc2[nH]c(NC(=O)c3csc(C4CCN(c5ccnc6ncnn56)CC4)n3)nc2c1` [Compound 10, 2-(1-([1,2,4]triazolo[1,5-a]pyrimidin-7-yl)piperidin-4-yl)-N-(5-benzoyl-1H-benzo[d]imidazol-2-yl)thiazole-4-carboxamide] here?
Its EC50 is less than 10 µM.

Which EC50 (NF-κB) does the source give for `O=C(c1ccccc1)c1ccc2nc(NC(=O)c3csc(C4CCN(c5ncnc6ccsc56)CC4)n3)[nH]c2c1` [Compound 4, N-(6-benzoyl-1H-benzo[d]imidazol-2-yl)-2-(1-(thieno[3,2-d]pyrimidin-4-yl)piperidin-4-yl)thiazole-4-carboxamide] here?
Its EC50 is less than 10 µM.

And the IC50 (NF-κB; read-out: NF-κB reporter gene assay IC50)?
Its IC50 is roughly 0.1 µM.

What about the “cytokine production, all measured cytokines” value (mouse splenocytes; after 24 hours) of the same molecule?
The value was “completely inhibited”.

And the “reduction of secretion of most cytokines” value (mouse splenocytes; after 48 hours)?
The value was “more than 90 % of the DMSO control”.

And the EC50 (human PBMCs; LPS stimulation, read-out: IL-6 secretion EC50)?
Its EC50 is 0.6 µM.

What about the EC50 (human PBMCs; LPS stimulation, read-out: TNF-alpha secretion EC50) of the same molecule?
The EC50 was 12.6 µM.

And the EC50 (human PBMCs; PHA stimulation, read-out: IL-6 secretion EC50)?
The EC50 was 0.2 µM.

What about the EC50 (human PBMCs; PHA stimulation, read-out: INF-gamma secretion EC50) of the same molecule?
The EC50 was 9 µM.

And the EC50 (human PBMCs; PHA stimulation, read-out: TNF-alpha secretion EC50)?
The EC50 was 7.9 µM.

And the “secretion of cytokines like IL-1beta, IL-6, IL-8, IFN-gamma, and TNF-alpha” value (human PBMCs; stimulated with CL075)?
The value was “blocked”.

What about the “secretion of cytokines like IL-6 and IL-8” value (human PBMCs; stimulated with IL-1beta) of the same molecule?
The value was “blocked”.

And the “secretion of cytokines like IL-8, IL-1beta, INF-gamma, TNF-alpha, IL-10, and IL-6” value (human PBMCs; stimulated with LPS)?
Its value is “blocked”.

And the “secretion of cytokines like IL-6 and IL-8” value (human PBMCs; stimulated with ODN1668)?
Its value is “blocked”.

What about the “secretion of cytokines like IL-8 and IFN-gamma” value (human PBMCs; stimulated with ODN2216) of the same molecule?
The value was “blocked”.

And the “secretion of cytokines like IL-1beta, IL-6, IL-2, IL-8, IL-10, IL-12p70, INF-gamma, and TNF-alpha” value (human PBMCs; stimulated with PHA)?
The value was “blocked”.

And the “secretion of cytokines like IL-1beta, IL-6, and IL-8” value (human PBMCs; stimulated with TNF-alpha)?
The value was “blocked”.

What about the “expression of H5N1 specific mRNA in the lung” value [1] of the same molecule?
The value was “reduced expression”.

And the “transcription of IL-6 and IP-10 genes in the lung” value [1]?
Its value is “reduced transcription”.

And the “reduction of virus titer” value [2]?
The value was 4 log units.

What about the “reduction of virus titer” value [3] of the same molecule?
The value was 5 log units.

What about the cytotoxicity (A549 cells) of the same molecule?
The cytotoxicity was “not cytotoxic”.

And the “cell viability versus DMSO treated and untreated cells” value (A549 cells; 5 μM, absence of virus, MTT staining, 96 hours)?
Its value is “the same”.

And the “protection of infected mice (survival)” value (influenza strain H7N7; LD50 H7N7, 15 mg/kg daily i.p. day 0 to day 8, end day 14, p<0.05)?
The value was “complete protection”.

And the “protection of infected mice (survival)” value (influenza strain H7N7; LD50 H7N7, daily i.v. day 0 to day 4, doses equal or higher 5 mg/kg, end day 14, p<0.05)?
The value was “significant protection”.

And the “protection of infected mice (survival)” value (influenza strain H5N1; LD50 H5N1, treatment from day 4 to day 10, 7.5 mg/kg b.id. and 15 mg/kg daily i.p., end day 14, p=0.05)?
Its value is “significant protection”.

And the “protection of infected mice (survival)” value (influenza strain H5N1; LD50 H5N1, two times 7.5 mg/kg daily i.p. day 0 to day 10, end day 14, p<0.05)?
The value was “significant protection”.

And the “multiple myeloma derived cell lines above average sensitive” value (hematological cell lines; cell lines derived from multiple myelomas)?
The value was 4 out of 5.

And the “score of tumor sensitivity” value (hematological cell lines; panel of hematological cell lines)?
Its value is “excellent score of tumor sensitivity”.

And the human lymphocyte proliferation (human lymphocyte)?
The human lymphocyte proliferation was “inhibits”.

What about the “mouse T-cell proliferation” value (mouse T-cell) of the same molecule?
The value was “inhibits”.

What about the “synergism in anti-viral efficacy and toxicity antagonism of combination with INFα versus IFNα combination with ribavirin” value (influenza virus; combination with INFα) of the same molecule?
The value was “stronger synergism”.

What about the “antiviral effects in combination with INF-α” value (influenza virus; combination with interferon-α) of the same molecule?
Its value is “synergistic antiviral effects”.

Which EC50 (NF-κB) does the source give for `O=C(c1ccccc1)c1ccc2nc(NC(=O)c3csc(C4CCN(C(=O)Nc5cc(Cl)nc(Cl)c5)CC4)n3)[nH]c2c1` [Compound 12, N-(6-benzoyl-1H-benzo[d]imidazol-2-yl)-2-(1-(2,6-dichloropyridin-4-ylcarbamoyl)piperidin-4-yl)thiazole-4-carboxamide] here?
Its EC50 is less than 10 µM.

With `COC(=O)c1cn2ncnc(N3CCC(c4nc(C(=O)Nc5nc6cc(C(=O)c7ccccc7)ccc6[nH]5)cs4)CC3)c2c1C` [Compound 8, Methyl 4-(4-(4-(5-benzoyl-1H-benzo[d]imidazol-2-ylcarbamoyl)thiazol-2-yl)piperidin-1-yl)-5-methylpyrrolo[1,2-f][1,2,4]triazine-6-carboxylate] as the molecule, how does the EC50 (NF-κB) read?
Its EC50 is 30 to 100 µM.

`Cc1cc2nnc(C(=O)N3CCC(c4nc(C(=O)Nc5nc6cc(C(=O)c7ccccc7)ccc6[nH]5)cs4)CC3)c(C)n2n1` [Compound 17, N-(5-benzoyl-1H-benzo[d]imidazol-2-yl)-2-(1-(4,7-dimethylpyrazolo[5,1-c][1,2,4]triazine-3-carbonyl)piperidin-4-yl)thiazole-4-carboxamide] was tested. Which EC50 (NF-κB) did it give?
Its EC50 is less than 10 µM.

For `O=C(c1ccccc1)c1ccc2nc(NC(=O)c3csc(C4CCN(c5ncnc6nc[nH]c56)CC4)n3)[nH]c2c1` [Compound 2, 2-(1-(7H-purin-6-yl)piperidin-4-yl)-N-(6-benzoyl-1H-benzo[d]imidazol-2-yl)thiazole-4-carboxamide], which EC50 (NF-κB) is on record?
Its EC50 is less than 10 µM.

With `Cc1cc2nccc(N3CCC(c4nc(C(=O)Nc5nc6cc(C(=O)c7ccccc7)ccc6[nH]5)cs4)CC3)n2n1` [Compound 9, N-(5-benzoyl-1H-benzo[d]imidazol-2-yl)-2-(1-(2-methylpyrazolo[1,5-a]pyrimidin-7-yl)piperidin-4-yl)thiazole-4-carboxamide] as the molecule, how does the EC50 (NF-κB) read?
Its EC50 is less than 10 µM.

`O=C(c1ccccc1)c1ccc2[nH]c(NC(=O)c3csc(C4CCN(C(=O)c5ccccc5OC(F)(F)F)CC4)n3)nc2c1` [Compound 16, N-(5-benzoyl-1H-benzo[d]imidazol-2-yl)-2-(1-(2-(trifluoromethoxy)benzoyl)piperidin-4-yl)thiazole-4-carboxamide] was tested. Which EC50 (NF-κB) did it give?
Its EC50 is less than 10 µM.

Which EC50 (NF-κB) does the source give for `O=CN1CCC(c2nc(C(=O)Nc3nc4cc(C(=O)c5ccccc5)ccc4[nH]3)cs2)CC1` [Compound 7, N-(5-benzoyl-1H-benzo[d]imidazol-2-yl)-2-(1-formylpiperidin-4-yl)thiazole-4-carboxamide] here?
Its EC50 is less than 10 µM.
